Converted amounts (≈) assume the structure as drawn.
System: Elodea (Elodea canadensis)
Assay: Native plant selectivity screening in aquaria, elodea (Example 6)
Format: in vivo
Conditions: static exposure; for Elodea biomass vs untreated reference plants: four WAT
Method: Materials and Methods: The study was conducted in an indoor aquaria facility. Elodea (Elodea canadensis) was obtained from cultures. Two apical tips approximately 10 cm long were planted into each of 48, plastic containers (16 oz. plastic cups). The containers were filled with potting soil and amended with 2 g/L Osmocote® fertilizer 19-6-12. A layer of sand was placed on top of the sediment in each container to prevent sediment re-suspension in the aquaria. Two containers of potted elodea were placed into each of 24 aquaria measuring 11.5 in×11.5 in×24 in. Additionally, sago pondweed (Stuckenia pectinata) tubers were obtained. The tubers were floated in shallow containers filled with water until new sprouts began to grow.
Once sprouted, two tubers were planted into 16 oz containers in a similar fashion as elodea. Two containers of potted sago pondweed were placed into each of the 24 aquaria, so that each aquarium had 4 potted plants (2 pots of each species). Each aquarium was filled to a volume of 45 L and plants allowed to grow approximately 3-4 weeks prior to herbicide treatments or until plants were at or near the water surface. Supplemental lighting was provided using Agrobrite growth lamps on a 12:12 light:dark cycle. After the plants reached the desired level of growth, a liquid formulation of fluroxypyr ester was applied as a concentrated aqueous solution at the concentrations outlined in Table 9. An untreated reference was also included for comparison purposes. All herbicide applications were made using a static exposure and replicated 3 times. […] Water was added to the aquaria as needed to maintain the desired 45 L volume of water.
At four weeks after treatment (WAT), plants were, harvested, sorted to aboveground biomass, dried in a forced air oven at 50 C for at least 48 h, and weighed for biomass determination (g/DW/aquaria). Differences between treatments were analyzed using an ANOVA, and if treatment differences were detected; means were separated using a Tukey's All-Pairwise comparison test. All analyses were conducted at a p≤0.05 significance level. Additionally, regression models were fit to elodea biomass data in order to estimate the EC50 concentration under the current experimental design.

Compound: CCCCCCC(C)OC(=O)COc1nc(F)c(Cl)c(N)c1Cl (stereo not shown) [Fluroxypyr ester, [(4-amino-3,5-dichloro-6-fluoro-2-pyridinyl)oxy]acetic acid, 1-methylheptyl ester]
- Elodea biomass vs untreated reference plants (400 ug/L or higher): reduced
- Elodea biomass vs untreated reference plants (50, 100, and 200 ug/L): similar
- EC50 (Elodea canadensis, 4 WAT, aquaria, read-out: EC50 for elodea (biomass, regression model)): 0.356 µg/mL (≈ 0.969 µM)
- herbicide symptoms on elodea (within one WAT, transient in the lower concentration treatments): epinastic twisting and bending

Reference: patent publication US20190208782A1, “PROCESSING COMPOSITION FOR C[…] WEEDS” (Arch Chemicals, Inc., priority 2018, published 2019)
